Results: paper PMC8794255, “Small molecule inhibitor of Igf2bp1 represses Kras and a pro-oncogenic phenotype in cancer cells” (RNA Biology, 2021)
Several values for one entry are separate records, joined by “and”; a condition that tells them apart may be missing. Equal values may be shown once.

Columns and labels:
[1] = tested on: HEK293 cells; experiment: Wound healing (cell migration) assay, HEK293; assay type: cell-based, human
Experimental: Cells were seeded in 96 IncuCyte® ImageLock plates (20X10^3 cells per well) for 24 hours, to a near confluency of 95%, before the addition of increasing concentrations of compound. After a further 24 hours, wells were scratched using the IncuCyte® 96-well WoundMaker Tool, and the cells cultured for an additional 48 hours using the IncuCyte® S3 Live-Cell Analysis System (Essen BioScience). The plate was imaged at increments of 120 minutes for a period of 48 hours, and then analysed for relative wound healing.

[2] = tested on: H1299 cells; experiment: qPCR of Igf2bp1 target RNAs in H1299 cells; assay type: cell-based, human
Experimental: (§1) Cells were grown for 12 hours in 12 well plates prior to incubation with the compound at different concentrations for an additional 12 or 24 hours. Total RNA was then extracted using EZ-RNA total RNA isolation kit (Biological Industries) and cDNA prepared from the RNA using the First Strand cDNA Synthesis kit (Quanta bio). Real time PCR was performed with Fast SYBR Green Master Mix (Thermo Fisher Scientific), and cDNA expression analysed with the Bio-Rad CFX Manager 3.1.

[3] = target: T1, La (Homo sapiens, UniProt P05455); experiment: MST, La protein; assay type: binding
T1 sequence (P05455 1-408): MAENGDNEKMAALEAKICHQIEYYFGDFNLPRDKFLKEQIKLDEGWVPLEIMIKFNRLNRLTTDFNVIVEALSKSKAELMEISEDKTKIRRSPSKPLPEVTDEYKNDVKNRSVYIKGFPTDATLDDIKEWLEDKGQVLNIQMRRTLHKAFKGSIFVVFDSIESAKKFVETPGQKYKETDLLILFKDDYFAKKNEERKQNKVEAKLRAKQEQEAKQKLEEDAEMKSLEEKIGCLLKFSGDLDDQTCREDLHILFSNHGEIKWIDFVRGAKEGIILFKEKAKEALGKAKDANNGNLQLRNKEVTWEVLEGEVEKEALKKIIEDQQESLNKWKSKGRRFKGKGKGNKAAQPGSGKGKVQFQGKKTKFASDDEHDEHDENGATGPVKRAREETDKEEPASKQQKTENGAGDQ

[4] = target: T2, Igf2bp1 KH34 di-domain (Homo sapiens, UniProt Q9NZI8); experiment: MST, Igf2bp1 KH34 di-domain; settings: read-out: KD of binding to KH34
T2 construct: Human Igf2bp1 di-domains RRM12 (M1-P188) and KH34 (P387-A574); 6xHis (N, cleaved yes); made in house; host or cells: E. coli BL21(DE3)
Experimental: (§2) Recombinant full-length Igf2bp1 protein was labelled with RED-tris-NTA dye using a Monolith NT His-Tag Labelling Kit (NanoTemper) while RRM12, KH12 and KH34 di-domain peptides were labelled using the Protein Labelling Kit RED NHS 2nd generation (NanoTemper). Labelled proteins were spun at 15,000 g for 5 min to eliminate aggregates. All samples were 2X labelled protein mix of Igf2bp1 (200 nM) in PBST and were combined (1:1) with serial dilutions of compound or Kras6 RNA in binding buffer (10mMTris pH = 7.5, 100 mM NaCl, 0.1 mM EDTA, 0.06% IPEGAL, 0.02 μg/μL tRNA, 2 mM DTT, 0.1 μg/μL heparin) in final volume of 20 μL, room temperature for 15 min. Samples were then loaded into standard capillaries (NanoTemper) and read in the Monolith NT.115 scanner (NanoTemper) using the red filter with reading conditions of 95% LED power and 40% MST power, 5 sec fluorescence before, 30 sec MST on, 5 sec fluorescence after and 25 sec delay between samples. Results were analysed using the MO Control software (NanoTemper) for curve fitting to KD.
The open reading frame of Igf2bps were cloned into the pET-21(d) plasmid (Novagen) between the Nco1 and Xho1 sites, as previously described. […]

[5] = target: T3, Igf2bp1 (Homo sapiens, UniProt Q9NZI8); experiment: Microscale thermophoresis (MST), full-length Igf2bp1; settings: full-length protein, read-out: KD of compound binding to Igf2bp1
T3 construct: Recombinant full-length Igf2bp1 protein was labelled with RED-tris-NTA dye; made in house
Experimental: as §2

[6] = tested on: H1299 cells; experiment: Cell proliferation assay (Incucyte), H1299; assay type: cell-based, human
Experimental: ES2, H1299 and HEK293 cells were seeded in a 96 well plate (5X10^3 cells per well) for 24 hours before adding the compound at increasing concentrations. After an additional 24 hours, the plate was incubated in an IncuCyte® S3 Live-Cell Analysis System (Essen BioScience). The wells were filmed for 72 hours, and then analysed for proliferation rate Using IncuCyte® S3 Live-Cell Analysis System (Essen BioScience)

[7] = tested on: ES2 cells; experiment: qPCR of Igf2bp1 target RNAs in ES2 cells; assay type: cell-based, human
Experimental: as §1

[8] = tested on: H1299 cells; experiment: Growth in soft agar, H1299; assay type: cell-based, human; settings: H1299, 20 μM 7773
Experimental: Cells were grown for 12 hours in 6 well plates prior to incubation with the compound or DMSO for an additional 48 hours, 2000 cells were suspended in 0.3% agar-complete medium and then seeded in triplicates onto a 0.6% agar-complete medium base in a 6 well plate. After one week, the colonies were fed with 0.3% agar-complete medium, and after 2 additional weeks, imaged and quantified.

T2 sequence (Q9NZI8 387-574): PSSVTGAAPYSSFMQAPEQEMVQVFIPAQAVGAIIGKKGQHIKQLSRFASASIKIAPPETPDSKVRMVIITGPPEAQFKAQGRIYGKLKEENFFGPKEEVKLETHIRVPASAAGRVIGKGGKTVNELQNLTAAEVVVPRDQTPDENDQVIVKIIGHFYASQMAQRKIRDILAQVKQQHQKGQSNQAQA
T3 sequence (Q9NZI8 whole entry): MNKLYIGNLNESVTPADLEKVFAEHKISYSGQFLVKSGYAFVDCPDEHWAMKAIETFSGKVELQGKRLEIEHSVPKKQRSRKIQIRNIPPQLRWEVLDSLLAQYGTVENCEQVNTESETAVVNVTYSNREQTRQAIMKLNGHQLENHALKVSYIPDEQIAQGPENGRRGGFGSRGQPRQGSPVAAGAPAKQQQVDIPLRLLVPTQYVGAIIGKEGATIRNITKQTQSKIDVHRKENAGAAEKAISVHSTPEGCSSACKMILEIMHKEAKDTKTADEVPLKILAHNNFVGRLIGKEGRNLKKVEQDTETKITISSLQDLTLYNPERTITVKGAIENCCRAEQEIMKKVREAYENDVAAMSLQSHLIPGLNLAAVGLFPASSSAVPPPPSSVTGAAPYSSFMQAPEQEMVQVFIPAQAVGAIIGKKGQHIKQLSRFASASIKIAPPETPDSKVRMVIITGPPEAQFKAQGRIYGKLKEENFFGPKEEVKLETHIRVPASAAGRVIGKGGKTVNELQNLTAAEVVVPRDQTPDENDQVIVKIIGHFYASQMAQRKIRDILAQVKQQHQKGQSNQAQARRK

SMILES: O=C(c1ccc(Cn2cnnn2)cc1)N1CCCC(Nc2ccc3c(c2)OCO3)C1 (stereo not drawn) [compound 7773]
- Wound healing ([1]; HEK293, 20 μM): strongly inhibited
- Wound healing ([1]; HEK293, lowest concentration 5 μM): discernible inhibition
- Steady state level of Kras mRNA ([2]; H1299, 20 μM 7773, 12 hours): already reduced
- Steady state levels of CD44, Kras, cMyc and SRF RNA ([2]; H1299, 20 μM 7773, 24 hours): all of the RNAs significantly reduced
- Levels of control RNAs that are not targets of Igf2bp1 ([2]; H1299, 24 hours): not significantly affected
- Binding to La [3]: No binding
- Kd [4]: 7.1 µM and 7.2 µM
- Kd [5]: 17 µM
- Effect on cell proliferation or cytotoxicity ([6]; H1299, 20 μM 7773): virtually no effect
- Cell proliferation ([6]; H1299, up to 20 μM): remarkably unaffected
- Steady state level of CD44 RNA ([7]; ES2, 20 μM 7773, 12 and 24 hours): strongly reduced after 12 hours, but appeared to recover after 24 hours
- Steady state levels of CD44, Kras, cMyc and SRF RNA ([7]; ES2, 20 μM 7773, 12 hours): all of the assayed RNAs were reduced
- Steady state levels of CD44, Kras, cMyc and SRF RNA ([7]; ES2, 20 μM 7773, 24 hours): 3 of the 4 RNAs showing similar or even enhanced reduction
- Levels of control RNAs that are not targets of Igf2bp1 ([7]; ES2, 24 hours): not significantly affected
- Ability to form colonies in soft agar [8]: dramatically inhibited
